Changes are numbered by the printed parent chain. pEC50: −log10 of the molar value.
What was measured:
[1] = target: F130N mutant 5-HT3 receptor; settings: F130N mutant receptor activated with acetylcholine; ref Steward et al. 2000; cited from earlier work
[2] = target: T1, N128R mutant 5-HT3 receptor (Mus musculus, UniProt P23979, N128R)
T1 sequence (P23979 24-483 isoform P23979-2 N128R limits assumed): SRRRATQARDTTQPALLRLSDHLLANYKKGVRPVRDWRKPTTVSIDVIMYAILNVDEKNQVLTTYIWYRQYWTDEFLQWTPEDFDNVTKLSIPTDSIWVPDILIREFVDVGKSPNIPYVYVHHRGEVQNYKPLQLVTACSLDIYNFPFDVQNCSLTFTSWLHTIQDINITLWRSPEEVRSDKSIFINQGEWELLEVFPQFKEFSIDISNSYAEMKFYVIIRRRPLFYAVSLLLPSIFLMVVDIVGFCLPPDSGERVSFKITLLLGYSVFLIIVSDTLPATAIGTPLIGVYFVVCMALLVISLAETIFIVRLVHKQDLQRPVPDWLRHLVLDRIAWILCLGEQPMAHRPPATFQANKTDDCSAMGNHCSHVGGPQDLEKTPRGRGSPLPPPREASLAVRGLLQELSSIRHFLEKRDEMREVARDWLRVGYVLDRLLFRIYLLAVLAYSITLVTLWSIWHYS

[3] = target: T2, N128L mutant 5-HT3 receptor (Mus musculus, UniProt P23979, N128L); settings: HEK 293 cells
T2 sequence (P23979 24-483 isoform P23979-2 N128L limits assumed): T1 sequence (P23979 24-483 isoform P23979-2 N128R limits assumed) with R105L

[4] = target: T3, F130A mutant 5-HT3 receptor (Mus musculus, UniProt P23979, F130A); assay: FlexStation membrane potential dye functional assay; type: cell-based
T3 sequence (P23979 24-483 isoform P23979-2 F130A limits assumed): T1 sequence (P23979 24-483 isoform P23979-2 N128R limits assumed) with R105N, F107A

[5] = target: T4, N128Q mutant 5-HT3 receptor (Mus musculus, UniProt P23979, N128Q); settings: HEK 293 cells
T4 sequence (P23979 24-483 isoform P23979-2 N128Q limits assumed): T1 sequence (P23979 24-483 isoform P23979-2 N128R limits assumed) with R105Q

[6] = target: T5, N128V mutant 5-HT3 receptor (Mus musculus, UniProt P23979, N128V); assay: FlexStation membrane potential dye functional assay; type: cell-based
T5 sequence (P23979 24-483 isoform P23979-2 N128V limits assumed): T1 sequence (P23979 24-483 isoform P23979-2 N128R limits assumed) with R105V

[7] = target: T6, N128E mutant 5-HT3 receptor (Mus musculus, UniProt P23979, N128E); assay: as above; type: cell-based
T6 sequence (P23979 24-483 isoform P23979-2 N128E limits assumed): T1 sequence (P23979 24-483 isoform P23979-2 N128R limits assumed) with R105E

[8] = target: T7, F130Y mutant 5-HT3 receptor (Mus musculus, UniProt P23979, F130Y); assay: as above; type: cell-based; settings: HEK 293 cells
T7 sequence (P23979 24-483 isoform P23979-2 F130Y limits assumed): T1 sequence (P23979 24-483 isoform P23979-2 N128R limits assumed) with R105N, F107Y

[9] = target: T8, F130W mutant 5-HT3 receptor (Mus musculus, UniProt P23979, F130W); assay: as above; type: cell-based
T8 sequence (P23979 24-483 isoform P23979-2 F130W limits assumed): T1 sequence (P23979 24-483 isoform P23979-2 N128R limits assumed) with R105N, F107W

[10] = target: T7, F130Y mutant 5-HT3 receptor; settings: whole cell electrophysiology, ref Steward et al. 2000; cited from earlier work
[11] = target: T9, N128D mutant 5-HT3 receptor (Mus musculus, UniProt P23979, N128D); settings: HEK 293 cells
T9 sequence (P23979 24-483 isoform P23979-2 N128D limits assumed): T1 sequence (P23979 24-483 isoform P23979-2 N128R limits assumed) with R105D

Structure (SMILES) | pEC50 [1] | factor of increase in EC50 versus wild type [2] | Hill Coefficient [3] | change in EC50 versus wild type [4] | Hill Coefficient ([4]; HEK 293 cells) | Hill Coefficient [5] | change in EC50 versus wild type [6] | Hill Coefficient ([6]; HEK 293 cells) | change in EC50 versus wild type [7] | Hill Coefficient ([7]; HEK 293 cells) | Hill Coefficient [8] | change in EC50 versus wild type [9] | Hill Coefficient ([9]; HEK 293 cells) | increase in EC50 versus wild type reported previously [10] [fold] | Hill Coefficient [11]
CC(=O)OCC[N+](C)(C)C [acetylcholine] | 3.59 | – | – | – | – | – | – | – | – | – | – | – | – | – | –
NCCc1c[nH]c2ccc(O)cc12 [5-HT, 5-hydroxytryptamine] | – | ~1500 | 2.519±0.15 | four-fold decrease in EC50 | 2.959±0.39 | 1.929±0.08 | four-fold decrease in EC50 | 1.809±0.34 | did not significantly affect the EC50 | 2.369±0.12 | 2.609±0.39 | four-fold decrease in EC50 | 2.159±0.35 | 8 | 2.169±0.68

Source: article PMC2649376 (Molecular membrane biology, 2006)
